Results taken from patent US9187749B2, “Methods for modulating factor 12 expression” (Isis Pharmaceuticals, Inc., priority 2011, dated 2015).
e = 2'-O-(2-methoxyethyl) (MOE); d = 2'-deoxy (DNA)

Experiments:
[1] = test system: mice; assay: Vascular leakage, Evans Blue in plasma, captopril-induced (Example 4); type: in vivo, mouse; conditions: HOE-140 30 μg ip, percentage increase or decrease vs Group 1 PBS
Procedure: Groups 4, 5, 6, 7, 8, and 9 consisted of 8 mice each and were treated with 2.5 mg/kg, 5 mg/kg, 10 mg/kg, 20 mg/kg, 40 mg/kg, or 80 mg/kg (corresponding to 5 mg/kg, 10 mg/kg, 20 mg/kg, 40 mg/kg, 80 mg/kg, or 160 mg/kg per week), respectively, of ISIS 410944 administered subcutaneously twice a week for 3 weeks. At the end of the treatment period, the mice of all the groups were intraperitoneally administered 20 μg of captopril. Groups 4-9 served as the experimental treatment groups for examining the effect of varying doses of ISIS 410944 on captopril-induced vascular permeability.
All the groups were then injected with 30 mg/kg of Evans Blue solution in the tail vein. The mice were sacrificed 30 min after the Evans Blue solution administration and colons, feet, ears, and intestines were harvested. Blood samples were taken through cardiac puncture.
The blood drawn through cardiac puncture was immediately mixed with 3 times the volume of ice-cold ethanol. The solution was centrifuged at 15,000 g for 20 minutes at 4° C. to remove cell debris and precipitated plasma proteins. The ethanol extracts were further purified by ultra-filtration through a 10 kDa MWCO filter. The color intensity of the ethanol extracted plasma solution was then measured at OD620nm. The results are presented in Table 7 as percentage increase or decrease of the OD values of the Group 1 PBS control.

[2] = test system: C1-INH mRNA; assay: Liver RT-PCR of C1-INH mRNA, C1-INH ASO-induced angioedema model (Example 9); type: in vivo, mouse; conditions: all groups given ISIS 461756 12.5 mg/kg sc twice a week, test ASO 40 mg/kg sc twice a week 3 weeks, vs PBS control not treated with ISIS 461756
Procedure: (§1) Vascular permeability induced by ISIS 461756, an antisense oligonucleotide which targets murine C1 inhibitor mRNA, increases vascular permeability in mice and replicates the pathology of hereditary angioedema. The effect of ISIS 410944 on this model was evaluated.
(§2) One group of 8 mice was treated with 40 mg/kg ISIS 410944 administered subcutaneously twice a week for 3 weeks (weekly dose of 80 mg/kg). A second group of 8 mice was treated with 40 mg/kg of the control oligonucleotide, ISIS 141923, administered subcutaneously twice a week for 3 weeks (weekly dose of 80 mg/kg). A third group of 8 mice was treated with PBS administered subcutaneously twice a week for 3 weeks. On day 14, all the groups were treated with 12.5 mg/kg ISIS 461756 administered subcutaneously twice a week for 3 weeks (weekly dose of 25 mg/kg). A control group of mice was treated with PBS administered subcutaneously twice a week for 3 weeks but was not administered ISIS 461756.
(§3) At the end of the treatment period, all the groups were injected with 30 mg/kg of Evans Blue solution into the tail vein. The mice were sacrificed 30 min after the Evans Blue solution administration and colons, feet, ears, and intestines were harvested. The liver was also harvested for RNA analysis.
(§4) RNA was isolated from the liver for RT-PCR analysis of C1-INH and Factor 12 mRNAs. […]

[3] = test system: Factor 12 mRNA; assay: Liver RT-PCR of Factor 12 mRNA, C1-INH ASO-induced angioedema model (Example 9); type: in vivo, mouse; conditions: all groups given ISIS 461756 12.5 mg/kg sc twice a week, test ASO 40 mg/kg sc twice a week 3 weeks, vs PBS control not treated with ISIS 461756
Procedure: as §1, §2, §3, §4

[4] = test system: mice; assay: Evans Blue vascular permeability, ISIS 461756-induced model (Example 9); type: in vivo, mouse; conditions: all groups given ISIS 461756 12.5 mg/kg sc twice a week; test ASO 40 mg/kg sc twice a week 3 weeks; vs untreated PBS control
Procedure: as §1, §2, §3
The harvested tissues from the feet, colon, and intestine were placed in formamide solution overnight to leach out the Evans Blue dye. The formamide solution containing feet tissue was heated to 55° C. and left overnight. The color intensity of the dye-infused formamide solution was then measured at OD600nm. The data is presented in Table 20 as percent increase or reduction compared to the PBS control not treated with ISIS 461756.

[5] = test system: Factor 12; assay: Spectrozyme Factor 12a based amidolytic assay for Factor 12 activation in plasma (Example 8); type: in vivo; conditions: mouse plasma; for % F12 activation compared to the PBS control: dextran sulfate
Procedure: The effect of antisense inhibition of kallikrein (KLKB1) mRNA on Factor 12 protein activation was evaluated.
Group 1 consisted of 8 mice and was treated with PBS administered subcutaneously twice a week for 3 weeks. No other treatment was administered to Group 1 which served as a control group to measure Factor 12 activation.
Groups 2, 3, 4, 5, and 6 consisted of 8 mice each and were treated with 2.5 mg/kg, 5 mg/kg, 10 mg/kg, 20 mg/kg, or 40 mg/kg (corresponding to 5 mg/kg, 10 mg/kg, 20 mg/kg, 40 mg/kg, or 80 mg/kg per week), respectively of ISIS 482584 administered subcutaneously twice a week for 3 weeks. Groups 2-6 served as the treatment groups for measuring the effect of ISIS 482584 on Factor 12 activation.
At the end of the treatment period, plasma was harvested from the mice for the Spectrozyme® Factor 12a based amidolytic assay for Factor 12 in plasma.
Plasma (5 μL) was added to 85 μL of PBS with 1 ug/ml dextran sulfate (500 kDa) in a 96 well polypropelene microplate and the solution was incubated for 5 minutes at room temperature. Spectrozyme® FXIIa (10 μL of a 2 mM solution) and 0.2 mM KALLISTOP™ solution was added and the absorbance kinetic was measured at 405 nm. Factor 12 activation was measured in the linear phase of absorbance accumulation. The results are presented in Table 18 as a percentage of Factor 12 activation measured in the PBS control sample.

HOE-140
Percentage of OD620 nm of Evans Blue dye compared to the PBS basal control to measure vascular leakage, Plasma [1]: 70%

ISIS 141923: control oligonucleotide, a 5-10-5 MOE gapmer with no known murine target, CCTTCCCTGAAGGTTCCTCC; SEQ ID NO: 38 (sugars from the 5' end e5 d10 e5, backbone and methylation of C not given here)
Percent inhibition of mRNA expression, C1-INH mRNA [2]: 79% | Percent inhibition of mRNA expression, Factor 12 mRNA [3]: 0% | Percent change in vascular permeability, Colon [4]: 2% | Percent change in vascular permeability, Feet [4]: 80% | Percent change in vascular permeability, Intestines [4]: 14%

ISIS 461756: 5-10-5 MOE gapmer AAAGTGGTTGATACCCTGGG (SEQ ID NO: 37) which targets murine C1 inhibitor mRNA; induces vascular permeability (sugars from the 5' end e5 d10 e5, backbone and methylation of C not given here)
Percent inhibition of mRNA expression, Factor 12 mRNA [3]: 0% | Percent change in vascular permeability, Colon [4]: 13% | Percent change in vascular permeability, Feet [4]: 70% | Percent change in vascular permeability, Intestines [4]: 27%

ISIS 482584: 5-10-5 MOE gapmer targeting kallikrein (KLKB1), GGCATATTGGTTTTTGGAAT; SEQ ID NO: 39 (sugars from the 5' end e5 d10 e5, backbone and methylation of C not given here)
% F12 activation compared to the PBS control ([5]; 5 mg/kg/wk sc 3 weeks): 82% | % F12 activation compared to the PBS control ([5]; 10 mg/kg/wk sc 3 weeks): 63% | % F12 activation compared to the PBS control ([5]; 20 mg/kg/wk sc 3 weeks): 47% | % F12 activation compared to the PBS control ([5]; 40 mg/kg/wk sc 3 weeks): 24% | % F12 activation compared to the PBS control ([5]; 80 mg/kg/wk sc 3 weeks): 14% | activation of Factor 12 ([5]; 5-80 mg/kg/wk sc 3 weeks): decreased activation of Factor 12
